Several values for one entry are separate records, joined by “and”; a condition that tells them apart may be missing. Identical values can stand only once. Like-named read-outs stand apart in the source and are kept apart here. One block for each compound: values may come before it.
Legend:
[1] = Solubility in water (remark on dosing vehicle); type: physicochemical
Description: (§1) Male Sprague-Dawley rats, weighing 210–290 g, were fasted for 12 h but with free access to water before dosing. The rats were randomly divided into groups of intravenous AN-1, intravenous apocynin, intragastric AN-1 and intragastric apocynin. […] Apocynin was dissolved in a mixture of propylene glycol-saline (4∶6, v/v). The single-dose pharmacokinetic study was performed. For AN-1, three different doses (20, 40 and 80 mg/kg) were administered for intravenous study (n = 6–8) and one dose (40 mg/kg) was given for intragastric study (n = 6). For apocynin, 50 mg/kg, an equimolar dose to 80 mg/kg (0.302 mmol/kg) of AN-1, was administered for both intravenous (n = 8) and intragastric studies (n = 6). A day before dosing, a cannula was introduced into jugular vein on rats for intravenous dosing and blood sampling in all groups.

[2] = Stability of analytes in rat plasma under different storage conditions; type: in vitro ADME; settings: for Accuracy, post-preparative stability: post-preparative QC samples; for Accuracy, post-preparative stability / Accuracy, short-term stability / Accuracy, freeze-thaw stability / Accuracy, long-term stability: n = 5; for time post-preparative solutions stable: room temperature; for Accuracy in stability test (summary) / Accuracy, short-term stability / Accuracy, freeze-thaw stability / Accuracy, long-term stability: rat plasma; for Accuracy in stability test (summary): long-term −20°C, short-term room temperature and three freeze-thaw cycles; for Accuracy, freeze-thaw stability: three freeze-thaw cycles; for Accuracy, long-term stability: −20°C for 30 days
Description: The stability of analytes in rat plasma stored under different conditions was assessed at low, medium and high QC concentrations, respectively. The conditions included long-term storage at −20°C for 30 days, short-term storage at room temperature (8 h for AN-1, 24 h for apocynin), three freeze-thaw cycles treatment, and post-preparative QC samples stored at room temperature (8 h for AN-1, 24 h for apocynin). The concentrations measured from the above samples were compared with the nominal values of QC plasma samples. Samples were concluded stable and applicable to routine analysis if the deviation of the observed concentration was less than ±15% from the nominal value.

[3] = system: RAW 264.7 macrophage cells; design: method as in earlier work; settings: RAW 264.7 cells, compared to parent apocynin, cited from earlier work
[4] = system: LPS-induced acute lung injury; design: method as in earlier work; settings: rat model of LPS-induced acute lung injury; cited from earlier work
[5] = system: gp91^phox subunit of NADPH-oxidase; design: method as in earlier work; settings: RAW 264.7 macrophage cells; cited from earlier work
[6] = Single-dose pharmacokinetic study (intravenous and intragastric) with HPLC-UV plasma assay, non-compartmental analysis; type: in vivo, Sprague-Dawley rats; settings: rat; for half-life / bioavailability / Cmax / Tmax / MRT last / clearance: male, Sprague-Dawley, plasma; for bioavailability: oral, read-out: F (absolute oral bioavailability); for MRT last: read-out: MRT0–t (converted)
Description: as §1
Blood samples (0.4 mL) was collected via jugular vein into heparinized tubes at 0 min (before dosing) and 5, 10, 15, 30, 45, 60, 90, 120, 180, 240, 360, 480, 600, 720, 840 min for AN-1 and at 0 min (before dosing) and 2, 4, 6, 10, 15, 20, 30, 40, 50, 60 min for apocynin after intravenous and intragastric dosing. An equal volume of heparinized saline was used to flush the catheter immediately after each blood withdrawal to prevent blood clotting. The blood samples were centrifuged immediately at 10,000 rpm for 5 min at 4°C, and then the plasma was transferred and stored at −20°C until analysis.
The profiles of analyte concentrations in rat plasma versus time were analyzed to calculate pharmacokinetic parameters by a non-compartmental model using DAS software (version 3.0.1, Chinese Mathematical Pharmacology Society).

[7] = room temperature 8 h, 0.2 µg/mL
[8] = room temperature 8 h, 250 µg/mL
[9] = room temperature 8 h, 400 µg/mL
[10] = intravenous and oral (intragastric), range over all intravenous and intragastric dose groups, read-out: terminal elimination half-life
[11] = po, intragastric, 40 mg/kg, n = 6
[12] = room temperature 24 h, 0.4 µg/mL
[13] = room temperature 24 h, 40 µg/mL
[14] = room temperature 24 h, 80 µg/mL
[15] = po, intragastric, 50 mg/kg, n = 6

SMILES: COc1cc(C(C)=O)cc(/C=[N+](\[O-])C(C)(C)C)c1O [AN-1, (Z)-N-(5-Acetyl-2-hydroxy-3-methoxybenzylidene)-2-methylpropan-2-amine oxide]
solubility in water [1]: poor solubility in water
Accuracy, post-preparative stability [2, 7]: 88.61±0.58%
Accuracy, post-preparative stability [2, 8]: 88.14±0.84%
Accuracy, post-preparative stability [2, 9]: 91.96±1.51%
time post-preparative solutions stable [2]: at least 8 h
Accuracy in stability test (summary) [2]: higher than 90%
Accuracy, short-term stability [2, 7]: 89.96±0.31%
Accuracy, short-term stability [2, 8]: 91.99±1.37%
Accuracy, short-term stability [2, 9]: 91.46±0.96%
Accuracy, freeze-thaw stability ([2]; 0.2 µg/mL): 94.79±0.46%
Accuracy, freeze-thaw stability ([2]; 250 µg/mL): 95.56±0.95%
Accuracy, freeze-thaw stability ([2]; 400 µg/mL): 96.33±0.98%
Accuracy, long-term stability ([2]; 0.2 µg/mL): 92.98±1.91%
Accuracy, long-term stability ([2]; 250 µg/mL): 94.74±2.43%
Accuracy, long-term stability ([2]; 400 µg/mL): 91.92±0.86%
protection against t-BHP inducing oxidative cytotoxicity [3]: protected
ROS production ([3]; t-BHP): attenuated the ROS production markedly
activity of superoxide dismutase in the lung of model rats [4]: significantly increased
treatment effect for the lung injury of model rats [4]: greater treatment effect than apocynin
expression of gp91^phox induced by t-BHP [5]: depressing the high expression
half-life [6, 10]: 163 to 201 min
bioavailability ([6]; intragastric 40 mg/kg vs intravenous 40 mg/kg): 78%
Cmax [6, 11]: 80 ± 20 µM
Tmax [6, 11]: 25.8 min
MRT last [6, 11]: 4.85 h
half-life ([6]; po, intragastric, 40 mg/kg, n = 6, read-out: T1/2): 201 ± 97 min
clearance ([6]; intravenous, 20 mg/kg, n = 8): 5 ± 1 mL/min/kg
MRT last ([6]; intravenous, 20 mg/kg, n = 8): 2.94 h
half-life ([6]; intravenous, 20 mg/kg, n = 8, read-out: T1/2): 172 ± 79.9 min
clearance ([6]; intravenous, 40 mg/kg, n = 6): 6 ± 1 mL/min/kg
MRT last ([6]; intravenous, 40 mg/kg, n = 6): 3.22 h
half-life ([6]; intravenous, 40 mg/kg, n = 6, read-out: T1/2): 163 ± 56.3 min
half-life ([6]; intravenous, 80 mg/kg (0.302 mmol/kg), n = 8, read-out: T1/2): 180 ± 44.9 min
clearance ([6]; intravenous, 80 mg/kg, n = 8): 5 ± 1 mL/min/kg
MRT last ([6]; intravenous, 80 mg/kg, n = 8): 3.42 h
exposure in the systemic circulation (AUC0–t) relative to apocynin ([6]; equimolar intravenous dose 0.302 mmol/kg): 25 fold
AUC0–t ([6]; intragastric, 40 mg/kg, n = 6): 20.68 ± 3.95 mmol·min/L
CL ([6]; intragastric, 40 mg/kg, n = 6): 0.007 ± 0.001 L/min/kg
V ([6]; intragastric, 40 mg/kg, n = 6): 1.95 ± 0.90 L/kg
AUC0–t ([6]; intravenous, 20 mg/kg, n = 8): 14.88 ± 1.31 mmol·min/L
V ([6]; intravenous, 20 mg/kg, n = 8): 1.20 ± 0.54 L/kg
AUC0–t ([6]; intravenous, 40 mg/kg, n = 6): 26.51 ± 5.12 mmol·min/L
V ([6]; intravenous, 40 mg/kg, n = 6): 1.27 ± 0.32 L/kg
AUC0–t ([6]; intravenous, 80 mg/kg (0.302 mmol/kg), n = 8, 80 mg/kg): 61.89 mmol·min/L and 61.89 ± 7.59 mmol·min/L
V ([6]; intravenous, 80 mg/kg, n = 8): 1.20 ± 0.32 L/kg

Accuracy, post-preparative stability [2, 12]: 98.34±6.26%
Accuracy, post-preparative stability [2, 13]: 94.57±0.60%
Accuracy, post-preparative stability [2, 14]: 92.51±1.43%
time post-preparative solutions stable [2]: at least 8 h
Accuracy in stability test (summary) [2]: higher than 90%
Accuracy, short-term stability [2, 12]: 102.47±6.10%
Accuracy, short-term stability [2, 13]: 95.52±1.01%
Accuracy, short-term stability [2, 14]: 94.11±1.35%
Accuracy, freeze-thaw stability ([2]; 0.4 µg/mL): 102.87±1.62%
Accuracy, freeze-thaw stability ([2]; 40 µg/mL): 95.48±0.69%
Accuracy, freeze-thaw stability ([2]; 80 µg/mL): 93.60±1.79%
Accuracy, long-term stability ([2]; 0.4 µg/mL): 102.17±0.87%
Accuracy, long-term stability ([2]; 40 µg/mL): 95.18±0.34%
Accuracy, long-term stability ([2]; 80 µg/mL): 94.09±0.99%
half-life [6, 10]: 5.9 to 6.1 min
bioavailability ([6]; intragastric 50 mg/kg vs intravenous 50 mg/kg): 2.8%
Cmax [6, 15]: 8 ± 2 µM
Tmax [6, 15]: 5.3 min
MRT last [6, 15]: 0.135 h
half-life ([6]; po, intragastric, 50 mg/kg, n = 6, read-out: T1/2): 5.9 ± 1.8 min
half-life ([6]; intravenous, 50 mg/kg (0.302 mmol/kg), n = 8, read-out: T1/2): 6.1 ± 0.9 min
clearance ([6]; intravenous, 50 mg/kg, n = 8): 120 ± 20 mL/min/kg
MRT last ([6]; intravenous, 50 mg/kg, n = 8): 0.117 h
AUC0–t ([6]; intragastric, 50 mg/kg, n = 6): 0.07 ± 0.01 mmol·min/L
CL ([6]; intragastric, 50 mg/kg, n = 6): 3.67 ± 0.35 L/min/kg
V ([6]; intragastric, 50 mg/kg, n = 6): 31.46 ± 12.14 L/kg
AUC0–t ([6]; intravenous, 50 mg/kg (0.302 mmol/kg), n = 8, 50 mg/kg): 2.49 ± 0.46 mmol·min/L
AUC0–t ([6]; intravenous, 50 mg/kg (0.302 mmol/kg), n = 8, listed as apocynin, 50 mg/kg): 2.49 mmol·min/L
V ([6]; intravenous, 50 mg/kg, n = 8): 1.09 ± 0.30 L/kg
SMILES: COc1cc(C(C)=O)ccc1O [Apocynin, 4-hydroxy-3-methoxyacetophenone]

From publication PMC3728092, “Improvement of Pharmacokinetics Behavior of Apocynin by Nitrone Derivatization: Comparative Pharmacokinetics of Nitrone-Apocynin and its Parent Apocynin in Rats” (PLoS ONE, 2013)
